The molecules below were run against T1, PLA2 (Homo sapiens, UniProt P14555) (assay: PLA2 Inhibition Assay (14C-oleate labeled E. coli membrane substrate)). Conditions: 100 μM; PLA2 from human platelets; pH 7, 37° C.
T1 construct: The enzyme is isolated from human platelets; from tissue; host or cells: human platelets
T1 sequence (P14555 21-144): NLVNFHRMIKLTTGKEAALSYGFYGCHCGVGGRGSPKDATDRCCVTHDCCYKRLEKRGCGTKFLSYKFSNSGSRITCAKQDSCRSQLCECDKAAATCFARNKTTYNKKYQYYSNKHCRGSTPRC
Assay type: biochemical
Description: The method used is similar to that reported by Franson, et al. [Jesse, R. L. and Franson R. C., Biochim. Biophys. Acta 575: 467-470 (1979); Franson, R. C., Patriarca, P., and Elsback, P., J. Lipid Res. 15: 380-388 (1974)]. The enzyme is isolated from human platelets. The substrate used consists of ^14 C-oleate labeled Escherichia coli membranes. E. coli cells are grown in the presence of ^14 C-oleic acid and then autoclaved to prepare the membranes.
Various concentrations of test compounds are preincubated with PLA2 (3.6 mg/mL in a buffer consisting of 25 mM HEPES (pH 7)), 150 mM NaCl, 5.0 mM CaCl2, and 10% DMSO (v/v, test compound solvent) at 37° C. for 7 minutes. The E. coli substrate is then added (0.1 mM phospholipid, 0,005 mCi ^14 C) and the reaction is then incubated at 37° C. for 30 minutes. The reaction is then terminated by the addition of 1.9 mL tetrahydrofuran (THF), and the entire solution is applied to a solid-phase extraction column (aminopropyl resin, Analytichem). The column is rinsed with an additional 1 mL of THF. The free fatty acid product of the reaction is then eluted from the column with 1 mL 2% acetic acid in THF and collected in a scintillation vial. The amount of free fatty acid product is determined by liquid scintillation counting. The amount of inhibition produced by the test compound is calculated by comparing the counts obtained in the presence of the compound to those obtained in its absence (solvent only). Background counts were determined by performing incubations in the absence of enzyme.
Percent inhibition is determined by the equation: [formula]
`CC(C)=CCOc1ccc(COc2cccc(/C=C/C(=O)O)c2-c2cccc(C(=O)O)c2)cc1OCC=C(C)C` [Structure 39a, 2-[3,4-his (3-methyl-2-butenyloxy)phenyl]methoxy-3'-carboxy-[1,1'-biphenyl]-6-[(E)-3-propenoic acid]] was tested, and the inhibition at 100 µM was 73%. `CC1(C)CCC(C)(C)c2cc(COc3cccc(C(=O)O)c3-c3ccc(CCO)cc3)ccc21` [Structure 14p, 2-(5,6,7,8-tetrahydro-5,5,8,8-tetramethyl-2-naphthalenyl)methoxy-4'-(2-hydroxy-1-ethyl)-[1,1'-biphenyl]-6-carboxylic acid] was tested, and the inhibition at 100 µM was 88%. `CC1(C)CCC(C)(C)c2cc(COc3cccc(C(=O)O)c3-c3ccccc3)ccc21` [Structure 14n, 2-(5,6,7,8-tetrahydro-5,5,8,8-tetramethyl-2-naphthalenyl)methoxy-[1,1'-biphenyl]-6-carboxylic acid] was tested, and the inhibition at 100 µM was 90%. For `O=C(O)/C=C/c1cccc(OCc2ccc(OC3CCCC3)c(OC3CCCC3)c2)c1-c1cccc(C(=O)O)c1` [Structure 39b], the inhibition at 100 µM was 86%. With `C/C(=C\c1cccc(CC(=O)O)c1-c1cccc(C(=O)O)c1)c1ccc2c(c1)C(C)(C)CCC2(C)C` [Structure 28b, 3'-carboxy-(E)-2-[(5,6,7,8-tetrahydro-5,5,8,8,-tetramethyl-2-naphthalenyl)-1-propenyl]-[1,1'-biphenyl]-6-acetic acid] the inhibition at 100 µM was 96%. `CC1(C)CCC(C)(C)c2cc(COc3c(C(=O)O)cccc3-c3ccccc3)ccc21` [Structure 48, 2-[5,6,7,8-tetrahydro-5,5,8,8-tetramethyl-2-naphthalenyl]methoxy-[1,1'-biphenyl]-3-carboxylic acid] showed an inhibition at 100 µM of 88%. `CC(C)=CCOc1ccc(COc2cccc(C(=O)O)c2-c2cccc(C(=O)O)c2)cc1OCC=C(C)C` [Structure 14b, 2-[3,4-bis(3-methyl-2-butenyloxy)phenyl]methoxy-[1,1'-biphenyl]-6,3'-dicarboxylic acid] was tested, and the inhibition at 100 µM was 20%. With `CCCCCOc1ccc(COc2cccc(C(=O)O)c2-c2cccc(C(=O)O)c2)cc1OCCCCC` [Structure 14c, 2-[(3,4-bispentyloxy)phenyl]methoxy-[1,1'-biphenyl]-6,3'-dicarboxylic acid] the inhibition at 100 µM was 53%. `O=C(O)Cc1cccc(/C=C/c2ccccc2)c1-c1cccc(C(=O)O)c1` [Structure 28a, (E) 2-styryl-6-carboxymethyl-1,1'-biphenyl-3'-carboxylic acid] gave an inhibition at 100 µM of 28%. With `CCCCCOc1ccc(COc2cccc(CC(=O)O)c2-c2cccc(C(=O)O)c2)cc1OCCCCC` [Structure 30a, 2-[(3,4-bispentyloxy)phenyl]methoxy-3'-carboxy-[1,1'-biphenyl]-6-acetic acid] the inhibition at 100 µM was 96%.

From patent US5391817A, “Biaryl phospholipase A2 inhibitors” (Bristol-Myers Squibb, priority 1993, dated 1995)
